One assay has as its target T1, TrkB (HEK293-TrkB cells) (Homo sapiens, UniProt Q16620).
T1 construct: expressed in transfected cells; host or cells: HEK293
Nature of the assay: Cell-surface fluorescence binding to live HEK293-TrkB cells. To be noted: HEK293-TrkB minus HEK293 wild-type fluorescence, 2.5 h. From the text:
Binding of the selective, intrinsically fluorescent mimics to cells can be observed and quantitated via fluorescence. Raw data includes fluorescence associated with material not removed in the washing step (sticky, nonselective binding), and if there were binding to any receptors other than Trk, then fluorescence would be observed for this too. In a second experiment, fluorescence associated with the wild-type cells without Trk expression was similarly recorded to provide a baseline correction representative of that nonselective binding, plus affinity to non-Trk receptors if that occurred. Consequently, fluorescence observed in the noncompetitive experiment minus that in the one using Trk-negative cell lines represents a minimum associated with binding to the expressed Trk receptor. […]
Trk-positive transfected cell lines (HeLa-TrkA, HEK293-TrkB, and NIH3T3-TrkC) and Trk-negative cell lines (HeLa, HEK293, and NIH3T3) were seeded at a density of 2 × 10^3 cells/well in 96-well plates and incubated for 24 h to allow them to adhere. […] Cell associated fluorescence was then determined by measuring emission of the resulting solution on a plate reader (BioTek Synergy H4 Hybrid Reader), λex (540/25 nm) and λem (620/40 nm). […]

Assay [1] has as its target TrkB-expressing cells (HEK+B) (UniProt Q16620). Nature of the assay: Cell survival assay in serum-free media, TrkB-expressing cells (HEK+B). The class given is cell-based. To be noted: normalized to DMSO (0%) and 1.0 nM BDNF (100%). As to the method:
Loop mimics 5 were screened in cell survival assays to evaluate their efficacy in stimulating Trk receptors (Figure 2). Mimics were assayed for the ability to rescue cells from cell death when incubated in serum-free media (SFM) in the absence of NTs (a test for “agonism”) or in the presence of a suboptimal NT concentration (a test for NT “modulation”). Simultaneously, these assays may confirm test mimics are not cytotoxic at lower doses (though cytotoxicity assays were also performed up to higher doses, Figure S1). […] All the test compounds were screened at 50 μM concentrations initially, and then, dose response curves were measured for the hits (Table 1 and Figure 3).
We were forced to use transfectants in different cell lines (HeLa, HEK-293, NIH-3T3 expressing TrkA, B, and C, respectively) due to difficulties in obtaining transfected cells derived from a single wild type; however, none of the cells used express TrkA-C prior to transfection. Throughout this paper, HeLa cells are denoted as “HeLa”, and their TrkA transfectants are “HeLa+A”. Similarly, HEK-293 cells are “HEK”; their TrkB transfectants are HEK+B. NIH-3T3 cells are “NIH”, and their TrkC transfectants are “NIH+C”.
Cells were seeded at a density of 2 × 10^3 cells/well in complete media in 96-well plates and incubated for 24 h to allow cells to adhere. Cells were washed with DPBS, and then, media were swapped for serum-free media of the same type as the complete media. Cells were then treated with 50 μM compound either alone or in conjunction with suboptimal neurotrophin corresponding to the Trk receptor expressed for 48 h. Cells were washed with DPBS buffer twice and detached from the plate with 50 μL of trypsin for 3 min at 37 °C. Trypsinization was quenched with 100 μL of complete media. Cells were suspended and live cells counted using flow cytometry (CytoFLEX LX). Cell survival was normalized from cell count (CC) readings relative to optimal neurotrophin (NT = 100%) and DMSO (0%) utilizing GraphPad Prism 10.2, followed by statistical analysis via one-way ANOVA and Dunnett’s t test compared to the DMSO control. Dose response versions of this assay were conducted following the same procedure, but the data was analyzed in GraphPad Prism 10.2 using the nonlinear fit: {agonist} vs response – variable slope (four parameters) function.

Assay [2] concerns the target TrkA-expressing cells (HeLa+A) (UniProt P04629). In words: Cell survival assay in serum-free media, TrkA-expressing cells (HeLa+A). The assay is classed as cell-based. To be noted: Figure 8 summary.
Experimental: Cells were seeded at a density of 2 × 10^3 cells/well in complete media in 96-well plates and incubated for 24 h to allow cells to adhere. Cells were washed with DPBS, and then, media were swapped for serum-free media of the same type as the complete media. […] Cells were suspended and live cells counted using flow cytometry (CytoFLEX LX).
The test system of the next assay is pMAPK in NIH+C cells. In words: ELFI, pMAPK signaling in NIH+C cells, competition with NT. The class given is cell-based. To be noted: competed with 10 ng/mL NT, 1 h. How it is done:
(§1) Throughout, the positive control was concentration-dependent treatment with the parent NT in half-log dilutions from 100 ng/mL to 0.1 ng/mL, and the negative control was to treat the cells with only DMSO. We first determined Z′ factors[83] based on these boundary controls. Once the assays had been validated (Z′ > 0.5), we determined optimal times to fix cells after treatment (taking into account potential differences in the kinetics of Trk activation between small molecules and neurotrophins), mimicked dose ranges, and then performed dose response studies.
(§2) Assays were conducted as previously reported.[36] Trk-positive cells (PC12, HEK293-TrkB, and NIH3T3-TrkC) were seeded at a density of 2 × 10^4 cells per well in poly-D-lysine (PDL)-coated 96-well white flat-bottomed plates and allowed to adhere for 24 h. Cells were washed once with SFM and then incubated for 1–2 h in SFM. A serial dilution of compound and/or NT was added, and the cells were incubated for 15 min (agonism experiments) or 1 h (antagonism). […] Cells were washed 6× with WB, and then, levels of phosphorylation were quantified using SuperSignal ELISA Pico Chemiluminescent Substrate (Thermo Scientific). […] IC50 is calculated for 5c(ii) using the {inhibitor} vs response – variable slope (four parameters) function in GraphPad Prism 10.2.

In assay [3] the test system is pAKT in PC12 (TrkA+) cells. Nature of the assay: ELFI, pAKT signaling in PC12 cells, competition with NT. The assay is classed as cell-based, rat. To be noted: competed with 10 ng/mL NT, 1 h. As to the method: as §1, §2
Assay [4] concerns primary adult cortical neurons. Nature of the assay: Primary adult cortical neuron assay (neurite outgrowth and survival). The class given is cell-based, mouse. The text has this:
We next decided to test the effects of 5c(ii) on primary mouse adult cortical neurons. These neurons naturally express TrkA[84] and therefore provide a more clinically relevant substrate to test compound leads in than analogous Trk-expressing transfectants. In addition, using neurons extracted from adult mice provide increased relevance to neurodegenerative and other nervous-system related diseases and injury, since most of these primarily occur in adult populations.[85],[86] To determine any potential for preclinical applications, 5c(ii) (5 μM) was incubated with primary cortical neurons from 6-week-old male mice at the time of plating, and neuronal survival and neurite outgrowth were quantified.
Figure 7 5c(ii) promotes neuroprotection. Primary adult cortical neurons were extracted from 6-week-old male mice and plated on 384-well PDL-coated plastic bottom plates at 10,000 cells/well. 5c(ii) at 5 μM concentration was added at the time of plating. 48 h after plating, the cells were fixed to conduct immunocytochemistry. Graph represents the mean ± SEM of (a) total neurite outgrowth per cell and (b) number of valid neurons per well. Representative images of cortical neurons treated with (c) vehicle and (d) 5 μM 5c(ii). Student’s t test. N = 3–5. *p < 0.05.
Cortical neuron assay was conducted as previously described.[85] Briefly, wild-type 6-week-old C57Bl/6 male mice were euthanized using CO2, and the brains were removed. The cortex was isolated and transferred to a MACS C-tube and then dissociated using the Miltenyi gentleMACS octo-dissociator on a preset protocol designed for adult rodent brains. […] Images were quantified using the Neurite Outgrowth Analysis Module in MetaXpress 6 software (Molecular Devices). For quantification, the number of valid neurons is determined by quantifying the number of TUBB3^+/DAPI^+ cells in a well with ≥10 μm of total neurite outgrowth. Total neurite outgrowth is determined by dividing the length of all neurites in a well by the number of valid neurons in that respective well. […]

The subject of the next assay is pAKT in NIH+C cells. In words: ELFI, pAKT signaling in NIH+C cells, competition with NT. The class given is cell-based. To be noted: competed with 10 ng/mL NT, 1 h. How it is done:
as §1, §2

Assay [5] deals with pMAPK in PC12 (TrkA+) cells. Nature of the assay: ELFI, pMAPK signaling in PC12 cells, competition with NT. To be noted: competed with 10 ng/mL NT, 1 h. The class given is cell-based, rat. How it is done:
as §1, §2

On the set-up of assay [6]: method as in PMID 34451801. To be noted: lack of selectivity; cited from earlier work.
In the next assay the test system is TrkC. The following applies: cited from earlier work.
The test system of a further assay is p75. The following applies: cited from earlier work.

The structures appear in SMILES notation. Like-named read-outs stand apart in the source and are kept apart here. *1 amine or outer side, *2 acyl side, *3 side chain or, on linkers, in order; H or OH if unused. Where a SMILES comes first, the peptide text is derived from it. Bridges are numbered along the chain shown (N, C = ends). X1 = COc1ccc(C2=C3C=C(S(=O)(=O)O)C([*:2])=[N+]3[B-](F)(F)n3c2cc(S(=O)(=O)O)c3[*:1])cc1; X2 = COc1ccc(C2=C3C=C(S(=O)(=O)O)C([*:1])=[N+]3[B-](F)(F)n3c2cc(S(=O)(=O)O)c3[*:2])cc1

Data on 4 compounds can be found in paper PMC11487604, “Selective, Intrinsically Fluorescent Trk Modulating Probes” (ACS Chemical Neuroscience, 2024).

Chain of TrkB-expressing cells (HEK+B) (Q16620 32-822): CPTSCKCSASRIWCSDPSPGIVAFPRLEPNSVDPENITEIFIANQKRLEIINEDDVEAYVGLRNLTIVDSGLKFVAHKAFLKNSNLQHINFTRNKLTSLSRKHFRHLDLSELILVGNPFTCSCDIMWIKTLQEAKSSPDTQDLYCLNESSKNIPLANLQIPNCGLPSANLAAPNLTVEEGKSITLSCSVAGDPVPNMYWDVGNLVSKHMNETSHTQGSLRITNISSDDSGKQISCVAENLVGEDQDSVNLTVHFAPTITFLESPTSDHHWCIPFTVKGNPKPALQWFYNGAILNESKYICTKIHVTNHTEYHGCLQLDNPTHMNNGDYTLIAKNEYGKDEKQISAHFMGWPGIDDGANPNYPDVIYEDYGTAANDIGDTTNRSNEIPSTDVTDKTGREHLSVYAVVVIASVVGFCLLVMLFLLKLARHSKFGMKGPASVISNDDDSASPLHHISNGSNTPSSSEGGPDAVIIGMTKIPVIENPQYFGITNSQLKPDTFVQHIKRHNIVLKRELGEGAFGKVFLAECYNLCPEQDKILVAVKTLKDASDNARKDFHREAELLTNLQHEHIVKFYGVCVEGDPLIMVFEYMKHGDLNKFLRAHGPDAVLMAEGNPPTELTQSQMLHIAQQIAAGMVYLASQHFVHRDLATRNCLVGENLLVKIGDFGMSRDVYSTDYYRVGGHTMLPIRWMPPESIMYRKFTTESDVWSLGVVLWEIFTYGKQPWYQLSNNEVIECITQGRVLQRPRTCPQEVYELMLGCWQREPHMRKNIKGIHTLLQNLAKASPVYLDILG
Chain of TrkA-expressing cells (HeLa+A) (P04629 33-796): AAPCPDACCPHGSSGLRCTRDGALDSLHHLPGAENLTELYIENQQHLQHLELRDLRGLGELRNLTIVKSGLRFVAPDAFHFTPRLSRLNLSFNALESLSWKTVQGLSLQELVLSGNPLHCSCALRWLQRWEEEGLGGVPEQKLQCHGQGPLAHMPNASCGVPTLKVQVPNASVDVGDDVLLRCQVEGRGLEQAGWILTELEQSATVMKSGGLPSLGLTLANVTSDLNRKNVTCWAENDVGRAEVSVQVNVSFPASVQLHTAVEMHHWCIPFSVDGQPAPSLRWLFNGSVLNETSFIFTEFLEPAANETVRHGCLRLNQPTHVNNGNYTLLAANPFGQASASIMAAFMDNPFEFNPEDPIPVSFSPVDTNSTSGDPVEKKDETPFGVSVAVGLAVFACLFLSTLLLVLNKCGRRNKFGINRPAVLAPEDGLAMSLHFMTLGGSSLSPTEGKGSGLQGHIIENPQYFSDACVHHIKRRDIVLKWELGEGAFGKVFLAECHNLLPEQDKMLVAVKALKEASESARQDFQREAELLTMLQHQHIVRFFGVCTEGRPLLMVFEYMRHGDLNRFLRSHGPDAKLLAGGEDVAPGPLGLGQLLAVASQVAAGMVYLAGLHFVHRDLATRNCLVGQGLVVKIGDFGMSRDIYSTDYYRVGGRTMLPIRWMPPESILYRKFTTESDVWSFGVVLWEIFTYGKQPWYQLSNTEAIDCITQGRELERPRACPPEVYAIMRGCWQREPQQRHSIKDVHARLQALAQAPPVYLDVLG

As for `COc1ccc(C2=C3C=C(S(=O)(=O)O)C4=[N+]3[B-](F)(F)n3c2cc(S(=O)(=O)O)c3SC[C@@H](C(N)=O)NC(=O)CNC(=O)[C@H](CO)NC(=O)[C@H](CCSC)NC(=O)[C@H](CC(=O)O)NC(=O)[C@@H](NC(C)=O)CS4)cc1` [5b(i)] (Ac-CDMSGC-NH2; linker 1-6 via X2), at TrkB (HEK293-TrkB cells), the Kd is 73 ± 13 nM. The EC50 in assay [1] (cell survival with 0.6 nM BDNF, read-out: EC50 (μM) with suboptimal neurotrophin) stood at 1.8 µM; in assay [1] (dose-dependent cell survival without NT, read-out: EC50), 0.4 µM.

`COc1ccc(C2=C3C=C(S(=O)(=O)O)C4=[N+]3[B-](F)(F)n3c2cc(S(=O)(=O)O)c3SC[C@H](NC(C)=O)C(=O)N[C@@H]([C@@H](C)O)C(=O)N[C@@H](CCC(N)=O)C(=O)N[C@@H](CC(N)=O)C(=O)N[C@@H](CO)C(=O)N[C@H](C(N)=O)CS4)cc1` [5c(ii)] (Ac-CTQNSC-NH2; linker 1-6 via X1; N-terminus and C-terminus assumed): the “result (Trk activity assigned)” value in [2] was “TrkA modulator”. Moreover, the IC50 in the assay on pMAPK in NIH+C cells turned out to be 35 µM; in assay [3], 7 µM; in the assay on pAKT in NIH+C cells it was 7 µM; in assay [5], 7 µM. Further, the “change in neurite outgrowth” value in [4] (5 μM, 48 h, neurons from 6-week-old male mice) is listed as “no significant change”. The “increase in the number of valid neurons” value in assay [4] (5 μM, after 48 h, neurons from 6-week-old male mice, vs vehicle) is “over 50%”.

Regarding `O=c1cc(-c2ccccc2)oc2c(O)c(O)ccc12` [7,8-DHF, 7,8-Dihydroxyflavone], in [6], the “number of targets bound” value is 133.

Consider `NCCCC[C@@H]1NC(=O)[C@H](CCC(=O)O)NC(=O)c2cc([N+](=O)[O-])ccc2OCC[C@@H](C(=O)NCC(=O)O)NC1=O` [D3], for which, in the assay with TrkC, the “binding to TrkC” value was “does not bind”. For the same compound, the “effect in primary adult cortical neuron assay” value in assay [4] (data not shown) is listed as “no measurable effect”. For the same compound, the “binding to p75” value in the assay on p75 was “does not bind”.

The term Kd denotes a measure of binding affinity in units of concentration. As usually defined, the EC50 is the concentration that produces a half-maximal response. Broadly, the IC50 is the concentration that inhibits the measured activity by half.
